Laboratory results as given in US10835533B2, “1 -((3S,4R)-4-(3-fluorophenyl)-1-(2-methoxyethyl)pyrrolidin-3-yl)-3-(4-methyl-3-(2-methylpyrimidin-5-yl)-1-phenyl-1H-pyrazol-5-yl)urea as a TrkA kinase inhibitor” (Array BioPharma Inc., priority 2014, dated 2020).

What was measured:
[1] = target: T1, GST-tagged recombinant human p38α (Homo sapiens, UniProt Q16539); experiment: p38α LanthaScreen Eu Kinase Binding Assay (Example G); conditions: TrkA versus p38α binding
T1 construct: GST-tagged cytoplasmic domain from Invitrogen, Catalog No. PV3305; purchased Invitrogen PV3305
Description: The p38α binding activity of Compound 1 was determined in a p38α LanthaScreen™ Eu Kinase Binding Assay. […] Three fold serial dilutions of Compound 1 in DMSO were added to a final percentage of 2% DMSO. After 60-minute incubation at 22° C., the reaction was measured using the EnVision multimode plate reader (PerkinElmer) via TR-FRET dual wavelength detection at […]. The percent of control was calculated using a ratiometric emission factor. The IC50 value was determined by fitting a four parameter model to the percent of control data.

TrkA = experiment: Estimated inhibition of TrkA after oral dose of 10 mg/kg in rats (FIGS. 3 and 4); conditions: oral dose of 10 mg/kg in rats; relative to Compound 2 and Compound 3; calculated from plasma concentration and IC50
Description: FIGS. 3 and 4 illustrate the estimated inhibition of TrkA for Compound 1 after an oral dose of 10 mg/kg in rats of relative to Compound 2, and for Compound 1 relative to Compound 3, respectively. The curves in FIGS. 3 and 4 were calculated using the following equation: […]
where Imin and Imax are the minimum and maximum possible inhibition of the target, respectively, IC50 is the concentration at which the target is inhibited by 50%, C is the concentration of the inhibitor, and n is the Hill slope.

LIMK1 = target: T2, LIMK1 (Homo sapiens, UniProt P53667); experiment: KinaseProfiler kinase profiling; format: biochemical; conditions: 10 μM, ATP near Km
T2 construct: purchased Millipore, Inc. (KinaseProfiler service)
Outline: (§1)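 ATP near Km for the individual kinase; inhibitor fixed at 10 μM. Figures are POC averages from duplicate determinations.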

IGF-1R Activated = target: T3, IGF-1R Activated (Homo sapiens, UniProt P08069); experiment: KinaseProfiler kinase profiling; format: biochemical; conditions: 10 μM, ATP near Km
T3 construct: purchased Millipore, Inc. (KinaseProfiler service)
Outline: as §1

Tie2 = target: T4, Tie2 (Homo sapiens, UniProt Q02763); experiment: KinaseProfiler kinase profiling; format: biochemical; conditions: 10 μM, ATP near Km
T4 construct: purchased Millipore, Inc. (KinaseProfiler service)
Outline: as §1

Pim-2 = target: T5, Pim-2 (Homo sapiens, UniProt Q9P1W9); experiment: KinaseProfiler kinase profiling; format: biochemical; conditions: 10 μM, ATP near Km
T5 construct: purchased Millipore, Inc. (KinaseProfiler service)
T5 sequence (Q9P1W9 whole entry): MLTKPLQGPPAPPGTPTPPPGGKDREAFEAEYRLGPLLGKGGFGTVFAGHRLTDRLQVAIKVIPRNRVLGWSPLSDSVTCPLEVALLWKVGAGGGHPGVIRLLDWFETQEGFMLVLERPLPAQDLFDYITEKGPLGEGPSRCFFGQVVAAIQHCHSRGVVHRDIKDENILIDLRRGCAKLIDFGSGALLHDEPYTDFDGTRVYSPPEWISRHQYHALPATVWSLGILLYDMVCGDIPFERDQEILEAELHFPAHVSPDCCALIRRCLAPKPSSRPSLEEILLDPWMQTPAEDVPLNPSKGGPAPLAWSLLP
Outline: as §1

PAK5 = target: T6, PAK5 (Homo sapiens, UniProt Q9P286); experiment: KinaseProfiler kinase profiling; format: biochemical; conditions: 10 μM, ATP near Km
T6 construct: purchased Millipore, Inc. (KinaseProfiler service)
T6 sequence (Q9P286 whole entry): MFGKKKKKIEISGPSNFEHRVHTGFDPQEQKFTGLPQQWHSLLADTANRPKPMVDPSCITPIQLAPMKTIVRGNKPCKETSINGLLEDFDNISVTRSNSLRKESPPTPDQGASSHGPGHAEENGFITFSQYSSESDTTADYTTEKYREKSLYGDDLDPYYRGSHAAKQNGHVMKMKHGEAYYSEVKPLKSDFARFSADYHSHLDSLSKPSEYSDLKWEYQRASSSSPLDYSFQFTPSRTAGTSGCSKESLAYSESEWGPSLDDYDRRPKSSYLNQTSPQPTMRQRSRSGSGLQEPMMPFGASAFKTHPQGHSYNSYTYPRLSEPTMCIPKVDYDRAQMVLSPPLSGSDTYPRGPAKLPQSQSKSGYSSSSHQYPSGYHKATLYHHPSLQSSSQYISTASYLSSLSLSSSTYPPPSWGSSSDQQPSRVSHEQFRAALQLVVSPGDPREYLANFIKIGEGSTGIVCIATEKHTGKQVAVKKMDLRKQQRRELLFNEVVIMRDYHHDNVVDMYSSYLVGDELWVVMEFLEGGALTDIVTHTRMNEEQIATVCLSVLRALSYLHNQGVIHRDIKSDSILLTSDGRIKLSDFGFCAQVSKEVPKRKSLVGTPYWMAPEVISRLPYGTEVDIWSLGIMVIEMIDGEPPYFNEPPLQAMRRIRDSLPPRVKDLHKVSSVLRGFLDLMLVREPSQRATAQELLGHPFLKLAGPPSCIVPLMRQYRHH
Outline: as §1

PKCtheta = target: T7, PKCtheta (Homo sapiens, UniProt Q04759); experiment: KinaseProfiler kinase profiling; format: biochemical; conditions: 10 μM, ATP near Km
T7 construct: purchased Millipore, Inc. (KinaseProfiler service)
Outline: as §1

Fer = target: T8, Fer (Homo sapiens, UniProt P16591); experiment: KinaseProfiler kinase profiling; format: biochemical; conditions: 10 μM, ATP near Km
T8 construct: purchased Millipore, Inc. (KinaseProfiler service)
Outline: as §1

Rsk2 = target: T9, Rsk2 (Homo sapiens, UniProt P51812); experiment: KinaseProfiler kinase profiling; format: biochemical; conditions: 10 μM, ATP near Km
T9 construct: purchased Millipore, Inc. (KinaseProfiler service)
Outline: as §1

GSK3beta = target: T10, GSK3beta (Homo sapiens, UniProt P49841); experiment: KinaseProfiler kinase profiling; format: biochemical; conditions: 10 μM, ATP near Km
T10 construct: purchased Millipore, Inc. (KinaseProfiler service)
Outline: as §1

JNK2alpha2 = target: T11, JNK2alpha2 (Homo sapiens, UniProt P45984); experiment: KinaseProfiler kinase profiling; format: biochemical; conditions: 10 μM, ATP near Km
T11 construct: purchased Millipore, Inc. (KinaseProfiler service)
Outline: as §1

MSK2 = target: T12, MSK2 (Homo sapiens, UniProt O75676); experiment: KinaseProfiler kinase profiling; format: biochemical; conditions: 10 μM, ATP near Km
T12 construct: purchased Millipore, Inc. (KinaseProfiler service)
Outline: as §1

DCAMKL2 = target: T13, DCAMKL2 (Homo sapiens, UniProt Q8N568); experiment: KinaseProfiler kinase profiling; format: biochemical; conditions: 10 μM, ATP near Km
T13 construct: purchased Millipore, Inc. (KinaseProfiler service)
Outline: as §1

ErbB4 = target: T14, ErbB4 (Homo sapiens, UniProt Q15303); experiment: KinaseProfiler kinase profiling; format: biochemical; conditions: 10 μM, ATP near Km
T14 construct: purchased Millipore, Inc. (KinaseProfiler service)
T14 sequence (Q15303 26-1308): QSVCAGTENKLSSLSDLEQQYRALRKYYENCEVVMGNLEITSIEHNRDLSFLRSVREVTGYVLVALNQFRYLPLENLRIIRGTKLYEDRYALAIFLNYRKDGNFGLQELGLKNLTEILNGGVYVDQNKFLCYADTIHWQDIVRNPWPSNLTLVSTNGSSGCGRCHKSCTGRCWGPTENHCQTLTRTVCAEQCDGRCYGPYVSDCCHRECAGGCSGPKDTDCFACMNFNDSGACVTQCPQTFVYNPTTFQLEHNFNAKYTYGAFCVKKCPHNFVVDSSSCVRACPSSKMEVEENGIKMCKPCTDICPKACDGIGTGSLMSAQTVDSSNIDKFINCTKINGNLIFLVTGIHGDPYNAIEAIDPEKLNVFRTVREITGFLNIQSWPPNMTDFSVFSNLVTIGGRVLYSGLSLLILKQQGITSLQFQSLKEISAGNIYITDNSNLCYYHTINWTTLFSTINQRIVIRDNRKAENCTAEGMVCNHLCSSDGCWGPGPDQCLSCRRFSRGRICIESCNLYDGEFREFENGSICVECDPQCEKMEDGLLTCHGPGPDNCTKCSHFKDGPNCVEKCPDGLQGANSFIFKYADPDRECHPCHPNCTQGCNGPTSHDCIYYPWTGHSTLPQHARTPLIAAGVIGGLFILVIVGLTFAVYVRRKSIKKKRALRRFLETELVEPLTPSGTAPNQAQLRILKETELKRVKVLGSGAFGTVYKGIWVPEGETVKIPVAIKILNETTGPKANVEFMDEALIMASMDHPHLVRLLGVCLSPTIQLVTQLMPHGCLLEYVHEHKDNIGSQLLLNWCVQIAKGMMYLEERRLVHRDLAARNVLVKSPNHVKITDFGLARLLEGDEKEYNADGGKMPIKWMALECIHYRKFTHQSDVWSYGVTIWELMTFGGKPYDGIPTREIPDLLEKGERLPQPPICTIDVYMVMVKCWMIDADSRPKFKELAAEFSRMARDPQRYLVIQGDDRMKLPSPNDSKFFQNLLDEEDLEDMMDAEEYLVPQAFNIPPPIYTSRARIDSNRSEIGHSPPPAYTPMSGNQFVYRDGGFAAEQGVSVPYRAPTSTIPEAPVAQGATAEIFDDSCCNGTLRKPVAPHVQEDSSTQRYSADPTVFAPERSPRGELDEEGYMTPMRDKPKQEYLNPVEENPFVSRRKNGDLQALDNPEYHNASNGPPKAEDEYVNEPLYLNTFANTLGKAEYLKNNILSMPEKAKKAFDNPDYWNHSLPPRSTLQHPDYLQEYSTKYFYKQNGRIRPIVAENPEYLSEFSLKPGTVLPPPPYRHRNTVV
Outline: as §1

BrSK1 = target: T15, BrSK1 (Homo sapiens, UniProt Q8TDC3); experiment: KinaseProfiler kinase profiling; format: biochemical; conditions: 10 μM, ATP near Km
T15 construct: purchased Millipore, Inc. (KinaseProfiler service)
T15 sequence (Q8TDC3 whole entry): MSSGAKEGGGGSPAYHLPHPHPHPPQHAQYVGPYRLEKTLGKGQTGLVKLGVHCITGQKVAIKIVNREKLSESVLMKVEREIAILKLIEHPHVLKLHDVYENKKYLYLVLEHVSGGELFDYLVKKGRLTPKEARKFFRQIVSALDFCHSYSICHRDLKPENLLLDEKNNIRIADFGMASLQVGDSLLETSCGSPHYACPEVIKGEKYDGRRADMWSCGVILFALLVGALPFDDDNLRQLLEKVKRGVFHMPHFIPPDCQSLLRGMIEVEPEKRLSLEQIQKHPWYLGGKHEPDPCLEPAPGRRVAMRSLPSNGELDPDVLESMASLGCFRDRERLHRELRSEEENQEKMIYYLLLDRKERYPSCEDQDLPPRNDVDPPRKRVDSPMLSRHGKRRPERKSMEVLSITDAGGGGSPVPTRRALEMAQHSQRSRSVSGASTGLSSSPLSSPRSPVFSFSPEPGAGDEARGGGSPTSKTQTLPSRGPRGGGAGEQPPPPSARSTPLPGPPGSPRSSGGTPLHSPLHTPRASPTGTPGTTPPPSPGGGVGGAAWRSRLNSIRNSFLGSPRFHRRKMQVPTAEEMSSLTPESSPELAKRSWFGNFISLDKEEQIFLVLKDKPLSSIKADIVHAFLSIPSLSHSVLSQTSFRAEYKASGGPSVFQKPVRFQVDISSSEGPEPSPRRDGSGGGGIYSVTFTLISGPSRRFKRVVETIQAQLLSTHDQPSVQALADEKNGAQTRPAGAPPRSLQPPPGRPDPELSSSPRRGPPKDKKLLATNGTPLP
Outline: as §1

FGFR4 = target: T16, FGFR4 (Homo sapiens, UniProt P22455); experiment: KinaseProfiler kinase profiling; format: biochemical; conditions: 10 μM, ATP near Km
T16 construct: purchased Millipore, Inc. (KinaseProfiler service)
Outline: as §1

CAMK1d = target: T17, CAMK1d (Homo sapiens, UniProt Q8IU85); experiment: KinaseProfiler kinase profiling; format: biochemical; conditions: 10 μM, ATP near Km
T17 construct: purchased Millipore, Inc. (KinaseProfiler service)
Outline: as §1

HIPK1 = target: T18, HIPK1 (Homo sapiens, UniProt Q86Z02); experiment: KinaseProfiler kinase profiling; format: biochemical; conditions: 10 μM, ATP near Km
T18 construct: purchased Millipore, Inc. (KinaseProfiler service)
Outline: as §1

MARK2 = target: T19, MARK2 (Homo sapiens, UniProt Q7KZI7); experiment: KinaseProfiler kinase profiling; format: biochemical; conditions: 10 μM, ATP near Km
T19 construct: purchased Millipore, Inc. (KinaseProfiler service)
Outline: as §1

TAO1 = target: T20, TAO1 (Homo sapiens, UniProt Q7L7X3); experiment: KinaseProfiler kinase profiling; format: biochemical; conditions: 10 μM, ATP near Km
T20 construct: purchased Millipore, Inc. (KinaseProfiler service)
Outline: as §1

Axl = target: T21, Axl (Homo sapiens, UniProt P30530); experiment: KinaseProfiler kinase profiling; format: biochemical; conditions: 10 μM, ATP near Km
T21 construct: purchased Millipore, Inc. (KinaseProfiler service)
Outline: as §1

ROCK-II = target: T22, ROCK-II (Homo sapiens, UniProt O75116); experiment: KinaseProfiler kinase profiling; format: biochemical; conditions: 10 μM, ATP near Km
T22 construct: purchased Millipore, Inc. (KinaseProfiler service)
T22 sequence (O75116 whole entry): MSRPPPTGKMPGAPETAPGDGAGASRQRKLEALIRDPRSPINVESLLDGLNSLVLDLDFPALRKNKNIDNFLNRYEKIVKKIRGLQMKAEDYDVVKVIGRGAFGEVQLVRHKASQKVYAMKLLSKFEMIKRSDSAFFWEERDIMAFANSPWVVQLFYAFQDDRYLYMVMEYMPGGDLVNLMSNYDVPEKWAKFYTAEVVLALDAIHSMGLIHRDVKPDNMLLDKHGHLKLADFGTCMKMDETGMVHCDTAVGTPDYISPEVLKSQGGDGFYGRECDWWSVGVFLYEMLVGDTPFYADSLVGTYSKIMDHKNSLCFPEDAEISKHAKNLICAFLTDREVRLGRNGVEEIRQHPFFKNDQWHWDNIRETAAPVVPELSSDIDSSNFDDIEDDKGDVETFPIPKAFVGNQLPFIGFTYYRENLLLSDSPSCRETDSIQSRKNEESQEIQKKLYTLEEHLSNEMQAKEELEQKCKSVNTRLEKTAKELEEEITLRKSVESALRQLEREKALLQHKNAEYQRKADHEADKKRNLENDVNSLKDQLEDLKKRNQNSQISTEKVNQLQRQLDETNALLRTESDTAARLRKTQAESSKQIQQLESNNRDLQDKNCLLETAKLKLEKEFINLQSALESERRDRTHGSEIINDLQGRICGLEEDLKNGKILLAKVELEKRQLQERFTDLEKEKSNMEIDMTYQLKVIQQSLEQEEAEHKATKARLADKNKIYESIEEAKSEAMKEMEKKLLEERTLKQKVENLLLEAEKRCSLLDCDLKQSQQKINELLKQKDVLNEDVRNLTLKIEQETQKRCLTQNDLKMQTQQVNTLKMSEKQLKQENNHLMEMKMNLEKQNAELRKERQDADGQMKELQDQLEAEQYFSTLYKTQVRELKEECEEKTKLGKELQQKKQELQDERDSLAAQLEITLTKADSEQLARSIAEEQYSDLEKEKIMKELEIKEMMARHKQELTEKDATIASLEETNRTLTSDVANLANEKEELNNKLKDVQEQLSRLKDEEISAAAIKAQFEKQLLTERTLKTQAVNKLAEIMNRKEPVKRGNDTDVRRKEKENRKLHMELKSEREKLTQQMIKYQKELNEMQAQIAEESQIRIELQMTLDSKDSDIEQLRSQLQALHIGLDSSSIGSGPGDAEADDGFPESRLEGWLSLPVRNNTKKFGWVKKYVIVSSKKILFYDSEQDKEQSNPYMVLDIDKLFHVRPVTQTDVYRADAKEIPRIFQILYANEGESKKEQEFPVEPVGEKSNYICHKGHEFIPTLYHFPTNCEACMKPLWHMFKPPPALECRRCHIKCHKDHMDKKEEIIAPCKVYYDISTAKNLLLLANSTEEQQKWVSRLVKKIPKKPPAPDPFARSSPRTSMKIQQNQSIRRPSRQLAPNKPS
Outline: as §1

CDK5/p35 = target: T23, CDK5/p35 (Homo sapiens, UniProt Q00535); experiment: KinaseProfiler kinase profiling; format: biochemical; conditions: 10 μM, ATP near Km
T23 construct: purchased Millipore, Inc. (KinaseProfiler service)
T23 sequence (Q00535 whole entry): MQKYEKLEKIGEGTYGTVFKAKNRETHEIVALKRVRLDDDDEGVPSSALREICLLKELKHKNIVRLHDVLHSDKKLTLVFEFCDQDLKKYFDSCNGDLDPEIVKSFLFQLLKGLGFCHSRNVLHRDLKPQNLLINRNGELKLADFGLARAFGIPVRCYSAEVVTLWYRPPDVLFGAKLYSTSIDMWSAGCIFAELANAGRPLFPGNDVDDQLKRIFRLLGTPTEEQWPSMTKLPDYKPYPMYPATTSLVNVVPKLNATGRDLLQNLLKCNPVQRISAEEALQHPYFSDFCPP
T23 sequence (Q15078 whole entry partner): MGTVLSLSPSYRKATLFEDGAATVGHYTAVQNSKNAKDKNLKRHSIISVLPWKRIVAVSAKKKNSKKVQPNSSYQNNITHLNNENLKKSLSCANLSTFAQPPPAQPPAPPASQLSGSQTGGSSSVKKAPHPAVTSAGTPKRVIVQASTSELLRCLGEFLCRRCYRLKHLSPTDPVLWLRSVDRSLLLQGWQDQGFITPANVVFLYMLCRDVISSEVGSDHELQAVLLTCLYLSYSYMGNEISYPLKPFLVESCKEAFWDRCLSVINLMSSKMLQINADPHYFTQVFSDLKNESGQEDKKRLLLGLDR
Outline: as §1

AKT3 = target: T24, AKT3 (Homo sapiens, UniProt Q9Y243); experiment: KinaseProfiler kinase profiling; format: biochemical; conditions: 10 μM, ATP near Km
T24 construct: purchased Millipore, Inc. (KinaseProfiler service)
Outline: as §1

Fgr = target: T25, Fgr (Homo sapiens, UniProt P09769); experiment: KinaseProfiler kinase profiling; format: biochemical; conditions: 10 μM, ATP near Km
T25 construct: purchased Millipore, Inc. (KinaseProfiler service)
Outline: as §1

## COCCN1C[C@@H](NC(=O)Nc2c(C)c(-c3cnc(C)nc3)nn2-c2ccccc2)[C@H](c2cccc(F)c2)C1 [Compound 1, 1-((3S,4R)-4-(3-fluorophenyl)-1-(2-methoxyethyl)pyrrolidin-3-yl)-3-(4-methyl-3-(2-methylpyrimidin-5-yl)-1-phenyl-1H-pyrazol-5-yl)urea]
[1]
  fold more potent against TrkA than p38α: 1000 fold
TrkA
  estimated inhibition of TrkA: higher
LIMK1
  Avg POC: 98 POC
IGF-1R Activated
  Avg POC: 105 POC
Tie2
  Avg POC: 82 POC
Pim-2
  Avg POC: 117.5 POC
PAK5
  Avg POC: 111 POC
PKCtheta
  Avg POC: 128.5 POC
Fer
  Avg POC: 103.5 POC
Rsk2
  Avg POC: 93 POC
GSK3beta
  Avg POC: 112 POC
JNK2alpha2
  Avg POC: 98.5 POC
MSK2
  Avg POC: 116.5 POC
DCAMKL2
  Avg POC: 135 POC
ErbB4
  Avg POC: 107.5 POC
BrSK1
  Avg POC: 98 POC
FGFR4
  Avg POC: 105 POC
CAMK1d
  Avg POC: 130 POC
HIPK1
  Avg POC: 98.5 POC
MARK2
  Avg POC: 109.5 POC
TAO1
  Avg POC: 96 POC
Axl
  Avg POC: 115.5 POC
ROCK-II
  Avg POC: 105.5 POC
CDK5/p35
  Avg POC: 97 POC
AKT3
  Avg POC: 113.5 POC
Fgr
  Avg POC: 106 POC
